Our source for the IC50 and melting point values is patent US6469003B1, “Pyridazinone derivatives” (Nihon Nohyaku Co., Ltd., priority 1998, dated 2002).

Series [1] deals with neutrophils isolated from human peripheral blood. The series is described as follows: Test of neutrophil adhesion inhibitory activity (fMLP-induced adhesion to keyhole limpet hemocyanin-coated plate). It counts as cell-based. The conditions noted are these: fluorescence-labeled, fMLP final concentration of 50 nM, plate coated with keyhole limpet hemocyanin, 37° C., read-out: Test of neutrophil adhesion inhibitory (50% inhibition concentration) IC50. The method, then:
Test Example (Test of Neutrophil Adhesion Inhibitory Activity)
To a 96 hole culture plate coated with keyhole limpet hemocyanin were added Dulbecco modified Eagle's media (DMEM, 25 μl) containing various concentrations of the test substance. The neutrophils isolated from human peripheral blood were labeled with fluorescence by means of 5,6-carboxyfluorescein diacetate, suspended into DMEM in a concentration of 1×10^6 cells/ml, and inoculated to the above plate in an amount of 50 μl. Then, after the addition of 25 μl of formylmethionyl-leucyl-phenylalanine (hereinafter referred to as “fMLP”) (final concentration of 50 nM), the cells were cultured at 37° C. for a certain period of time to induce the adhesion of the neutrophils to the plate. After culturing, the plate was washed with phosphate-buffered physiological saline to remove the neutrophils which were not adhered. The adhered neutrophils were dissolved and then the fluorescence intensity was measured. Using the data of a non-stimulated group where the stimulation with fMLP was not carried out and an fMLP-stimulated group where the stimulation was carried out, the adhesion inhibition rate at each concentration of the test substance was determined according to the following equation. From the concentration-inhibition curve, 50% inhibitory concentration (IC50) was calculated.
Adhesion inhibition rate (%)=(Fmax−Fx)/(Fmax−Fo)×100
Fx: the fluorescence intensity of the group treated with a test substance
Fmax: the fluorescence intensity of the fMLP-stimulated group
Fo: the fluorescence intensity of the non-stimulated group

Read-outs that look alike come from different tables or passages of the source.

As to `CC(=O)c1nn(-c2cccc(Cl)c2)c(=O)c(Sc2ccccc2Cl)c1C` [Compound 1-01], the IC50 in series [1] amounted to 0.016 µM.

`Cc1c(C(C)O)nn(-c2ccc(F)cc2)c(=O)c1Sc1ccncc1` (centres unmarked) [Compound 6-02]: the IC50 in series [1] was 0.306 µM.

Turning to `CC(=O)c1nn(-c2cccc(Cl)c2)c(=O)c(Sc2ccc(Cl)cc2)c1C` [Compound 1-03], the IC50 in series [1] was 0.027 µM.

Regarding `CC(=O)c1nn(-c2cccc(Cl)c2)c(=O)c([S+]([O-])c2ccccc2)c1C` (centres unmarked) [Compound 1-84], the IC50 in series [1] came to 0.01 µM.

With `CC(=O)c1nn(-c2cccc(Cl)c2)c(=O)c(Sc2ccc([N+](=O)[O-])cc2)c1C` [Compound 1-10], the IC50 in series [1] worked out at 0.093 µM.

`CC(=O)c1nn(-c2ccc(F)cc2)c(=O)c(Sc2ccncc2)c1C` [Compound 1-25]: the IC50 in series [1] worked out at 0.01 µM.

In the case of `CC(=O)c1nn(-c2cccc(Cl)c2)c(=O)c(Oc2ccccc2)c1C` [Compound 1-70], the IC50 in series [1] amounted to 0.018 µM.

In the case of `CC(=O)c1nn(-c2ccc(F)cc2)c(=O)c(Sc2cccnc2)c1C` [Compound 1-22], the IC50 in series [1] is 0.009 µM.

Molecule `CC(=O)c1nn(-c2cccc(Cl)c2)c(=O)c(-c2cccs2)c1C` [Compound 1-97, 6-acetyl-2-(3-chlorophenyl)-5-methyl-4-(2-thienyl)-3(2H)-pyridazinone] yielded a melting point of 116 to 117 °C. In series [1] (Neutrophil), the IC50 was 0.011 µM.

`CC(=O)c1nn(-c2ccc(F)cc2)c(=O)c(Sc2ccc(NS(C)(=O)=O)cc2)c1C` [Compound 4-01, 6-acetyl-2-(4-fluorophenyl)-5-methyl-4-(4-methylsulfonylaminophenylthio)-3(2H)-pyridazinone]: the melting point lay within 182 to 184 °C.

As for `CC(=O)c1nn(-c2ccc(F)cc2)c(=O)c(Sc2cccnc2)c1C` [Compound 1-23], the IC50 in series [1] came to 0.006 µM.

With `CC(=O)c1nn(-c2cccc(Cl)c2)c(=O)c(Sc2ccccc2)c1C` [Compound 1-64, 6-acetyl-2-(3-chlorophenyl)-5-methyl-4-phenylthio-3(2H)-pyridazinone], the melting point lay in the range of 99 to 100 °C. The IC50 in series [1] (Neutrophil) stood at 0.004 µM.

Consider `CC(=O)c1nn(-c2ccc(Cl)cc2)c(=O)c(Sc2ccccc2)c1C` [Compound 1-69], for which the IC50 in series [1] is 0.222 µM.

`CC(=O)c1nn(-c2ccc(Cl)cc2)c(=O)c(Sc2ccc(Cl)cc2)c1C` [Compound 1-29, 6-acetyl-2-(4-chlorophenyl)-4-(4-chlorophenylthio)-5-methyl-3(2H)-pyridazinone] registered a melting point of 165 to 166 °C.

As to `CC(=O)c1nn(-c2cccc(Cl)c2)c(=O)c(Sc2ccc(F)cc2)c1C` [Compound 1-07], the IC50 in series [1] amounted to 0.02 µM.

For `CC(=O)c1nn(-c2ccc(F)cc2)c(=O)c(OCc2ccncc2)c1C` [Compound 1-115], the IC50 in series [1] came out at 0.044 µM.

Regarding `CC(=O)c1nn(-c2ccc(F)cc2)c(=O)c(Sc2ccccn2)c1C` [Compound 1-21], the IC50 in series [1] was 0.196 µM.

Turning to `CC(=O)c1nn(-c2cccc(Cl)c2)c(=O)c(SC(C)(C)C)c1C` [Compound 1-17], the IC50 in series [1] is 0.019 µM.

As for `CC(=O)c1nn(-c2cccc(F)c2)c(=O)c(-c2cccs2)c1C` [Compound 1-98], the IC50 in series [1] worked out at 0.656 µM.

On to `CC(=O)c1nn(-c2ccc(F)cc2)c(=O)c(OCc2cc[n+]([O-])cc2)c1C` [Compound 1-130, 6-acetyl-2-(4-fluorophenyl)-5-methyl-4-((4-pyridyl N-oxide)methoxy)-3(2H)-pyridazinone], for which the IC50 in series [1] worked out at 0.138 µM.

Take `CC(=O)c1nn(-c2cccc(Cl)c2)c(=O)c(Sc2ccc(C)cc2)c1C` [Compound 1-08]: in series [1], the IC50 stood at 0.139 µM.

`CC(=O)c1nn(-c2cccc(Cl)c2)c(=O)c(-c2nccs2)c1C` [Compound 1-155, 6-acetyl-2-(3-chlorophenyl)-5-methyl-4-(1,3-thiazol-2-yl)-3(2H)-pyridazinone] showed a melting point of 158 to 160 °C.

With `CC(=O)c1nn(-c2cccnc2)c(=O)c(-c2cccs2)c1C` [Compound 1-102], the IC50 in series [1] came out at 0.31 µM.

Consider `CC(=O)Nc1ccc(Sc2c(C)c(C(C)=O)nn(-c3ccc[n+]([O-])c3)c2=O)cc1` [Compound 1-151], for which, in series [1], the IC50 is 0.975 µM.

With `CC(=O)c1nn(-c2ccc(F)cc2)c(=O)c(Sc2ccc(F)cc2)c1C` [Compound 1-20], the IC50 in series [1] amounted to 0.005 µM.

Consider `CC(=O)c1nn(-c2ccc(F)cc2)c(=O)c(SCCN2CCOCC2)c1C` [Compound 5-04, 6-acetyl-2-(4-fluorophenyl)-5-methyl-4-(2-morpholin-4-ylethylthio)-3(2H)-pyridazinone], for which the melting point is 92 to 93 °C.

On to `CC(=O)c1nn(-c2cccnc2)c(=O)c(Sc2ccccc2)c1C` [Compound 1-68], for which the IC50 in series [1] was 0.007 µM.

For the molecule `CC(=O)c1nn(-c2ccc(F)cc2)c(=O)c(OCc2ccccn2)c1C` [Compound 1-113], in series [1], the IC50 was determined as 0.358 µM.

`CC(=O)c1nn(-c2cccc(Cl)c2)c(=O)c(S(=O)(=O)c2ccccc2)c1C` [Compound 1-83, 6-acetyl-2-(3-chlorophenyl)-5-methyl-4-phenylsulfonyl-3(2H)-pyridazinone] yielded a melting point of 175 to 176 °C. In series [1] (Neutrophil), the IC50 is 0.012 µM.

Take `Cc1c(C(C)O)nn(-c2cccc(Cl)c2)c(=O)c1Sc1ccccc1` (centres unmarked) [Compound 6-01, 2-(3-chlorophenyl)-6-(1-hydroxyethyl)-5-methyl-4-phenylthio-3(2H)-pyridazinone]: the melting point is 180 to 182 °C. The IC50 in series [1] (Neutrophil) stood at 0.009 µM.

For the molecule `CC(=O)c1nn(-c2ccc[n+]([O-])c2)c(=O)c(Sc2ccc(F)cc2)c1C` [Compound 1-134, 6-acetyl-4-(4-fluorophenylthio)-5-methyl-2-(3-pyridyl N-oxide)-3(2H)-pyridazinone], the IC50 in series [1] is 0.463 µM.

For `CC(=O)c1nn(-c2ccc(F)cc2)c(=O)c(OCc2cccnc2)c1C.Cl`, the melting point was in the range of 153 to 156 °C.

As for `O=C(O)c1cc(CSc2ccc(F)cc2)c(=O)n(-c2cccc(Cl)c2)n1` [Compound 1-80, 1-(3-chlorophenyl)-5-(4-fluorophenylthio)-methyl-6-oxohydropridazin-3-carboxylic acid], the IC50 in series [1] amounted to 0.668 µM.

Turning to `COc1cccc(Sc2c(C)c(C(C)=O)nn(-c3cccc(Cl)c3)c2=O)c1` [Compound 1-05], the IC50 in series [1] is 0.032 µM.

As to `COc1ccc(Sc2c(C)c(C(C)=O)nn(-c3cccc(Cl)c3)c2=O)cc1` [Compound 1-06], in series [1], the IC50 came out at 0.04 µM.

Consider `CC(=O)c1nn(-c2cccc(Cl)c2)c(=O)c(Sc2ccccn2)c1C` [Compound 1-11], for which the IC50 in series [1] is 0.079 µM.

As for `CC(=O)c1nn(-c2cccc(Cl)c2)c(=O)c(Oc2ccc(F)cc2)c1C` [Compound 1-73], in series [1], the IC50 was found to be 0.032 µM.

With `CC(=O)c1nn(-c2ccc(F)cc2)c(=O)c(-c2cccs2)c1C` [Compound 1-100], the IC50 in series [1] was 0.41 µM.

In turn, `CC(=O)c1nn(-c2cccc(Cl)c2)c(=O)c(C(N)=S)c1C` [Compound 1-153, 6-acetyl-4-(aminothioxomethyl)-2-(3-chlorophenyl)-5-methyl-3(2H)-pyridazinone] had a melting point of 195 to 197 °C.

Take `CC(=O)c1nn(-c2cccnc2)c(=O)c(Sc2ccncc2)c1C` [Compound 1-32]: the IC50 in series [1] stood at 0.165 µM.

As to `CC(=O)c1nn(-c2ccc(F)cc2)c(=O)c(Sc2ccncc2)c1C` [Compound 1-24], the IC50 in series [1] amounted to 0.014 µM.

On to `CC(=O)c1nn(-c2cccnc2)c(=O)c(Sc2ccc(F)cc2)c1C` [Compound 1-31], for which, in series [1], the IC50 came to 0.055 µM.

On to `CSc1c(C)c(C(C)=O)nn(-c2cccc(Cl)c2)c1=O` [Compound 1-15], for which the IC50 in series [1] came out at 0.058 µM.

In the case of `COc1ccccc1Sc1c(C)c(C(C)=O)nn(-c2cccc(Cl)c2)c1=O` [Compound 1-04], in series [1], the IC50 was found to be 0.619 µM.

In the case of `CC(=O)c1nn(-c2cccc(F)c2)c(=O)c(Oc2ccc(F)cc2)c1C` [Compound 1-74], the IC50 in series [1] turned out to be 0.048 µM.

Regarding `CC(=O)c1nn(-c2ccc(F)cc2)c(=O)c(Sc2ccc(N(C)C)cc2)c1C` [Compound 4-04, 6-acetyl-4-(4-dimethylaminophenylthio)-2-(4-fluorophenyl)-5-methyl-3(2H)-pyridazinone], the melting point was in the range of 172 to 174 °C.

By melting point is commonly meant the temperature of the solid-liquid transition.
